Data reported in patent publication US20220168430A1, “THERAPEUTIC METHODS FOR TREATING HEPATITIS B” (priority 2019, published 2022).
Values joined by “and” are separate entries in the source; they are usually repeats but may differ in a detail not shown here. Equal entries are not always repeated. Where two headings read alike, the source gives them in different places.

Key:
HBV rcDNA = test: Dual agent combination in HepDE19 cells, rcDNA by Quantigene 2.0 bDNA assay (Examples 5-8); format: cell-based, HBV; HepDE19 (HepG2 human hepatocarcinoma derived); settings: for EC50: HepDE19, combination studies with Cmpd 1, read-out: Avg. Inhibitor B EC50; for inhibition at 0.01 µM / inhibition at 0.02 µM / inhibition at 0.039 µM / inhibition at 0.156 µM / inhibition at 1.25 µM: HepDE19, Expt 2; for inhibition at 0.01 µM: TDF 0.010 μM alone; for inhibition at 0.02 µM: TDF 0.020 μM alone; for inhibition at 0.039 µM: TDF 0.039 μM alone; for inhibition at 0.156 µM: TDF 0.156 μM alone; for inhibition at 1.25 µM: TDF 1.250 μM alone
Procedure: In vitro dual agent combination studies were conducted using the method of Prichard and Shipman 1990 (Prichard M N, Shipman C, Jr. 1990. Antiviral Res 14:181-205). The HepDE19 cell culture system is a HepG2 (human hepatocarcinoma) derived cell line that supports HBV DNA replication and cccDNA formation under control the control of a CMV Tet-off promoter system (Guo et al. 2007. J Virol 81:12472-84). HepDE19 (50,000 cells/well) were plated in 96 well collagen-coated tissue-culture treated microtiter plates in DMEM/F12 medium supplemented with 10% fetal bovine serum+1% penicillin-streptomycin with tetracycline (1 μg/mL) and incubated in a humidified incubator at 37° C. and 5% CO2 overnight. Next day, the cells were switched to fresh medium without tetracycline and incubated for 4 hrs at 37° C. and 5% CO2. The cells were switched to fresh medium and treated with inhibitor A and inhibitor B, at concentration range spanning their respective EC50 values. […] The two inhibitors were tested both singly as well as in combinations in a checkerboard fashion such that each concentration of inhibitor A was combined with each concentration of inhibitor B to determine their combination effects on inhibition of rcDNA production. There were four replicates of each concentration combination in each experiment. The plates were incubated for 7 days in a humidified incubator at 37° C. and 5% CO2. The level of rcDNA present in the wells was measured using a Quantigene 2.0 bDNA assay kit (Affymetrix, Santa Clara, Calif.) with HBV specific custom probe set (genotype D ayw) and according to the manufacturer's instructions and read using a luminescence plate reader and the relative luminescence units (RLU) data generated from each well was calculated as % inhibition of the untreated control wells and analyzed using the MacSynergy II program to determine whether the combinations were synergistic, additive or antagonistic using the interpretive guidelines established by Prichard and Shipman (Prichard M N, Shipman C, Jr. 1990. […] Each experiment was repeated at least three times and the averages and standard deviations of individual determinations was calculated to derive the conclusion. Concurrently, in each experiment, the effect of inhibitor combinations on cell viability was assessed using replicate plates in triplicates that were used to determine the ATP content as a measure of cell viability using the Cell-Titer Glo reagent (Promega, Madison, Wis.) as per the manufacturer's instructions.

HepG2.2.15 cells = format: cell-based, human; settings: ETV 3.17E−05 μM; Cmpd 2 μM: 0.01, 0.0032, 0.001, 0.0003, 0.0001, 0
Description: The combination results were completed in duplicate with each assay consisting of 4 technical repeats.
The combination results were completed in duplicate with each assay consisting of 4 technical repeats. In this assay system, the combination results in additive inhibition of HBV DNA.

HBV DNA [1] = test: HBV DNA in culture supernatants of HBV-infected PHH by qPCR (Examples 15-17); format: cell-based, HBV genotype D; primary human hepatocytes
Procedure: The day PHH seeding date was defined as day 0.
The PHH were infected with 400 HBV GE/cell of D type HBV on day 1.
The test articles were further diluted with the culture medium to the final test concentrations.
All the test articles were further diluted 100 times with the culture medium. The final concentration of DMSO in the culture medium was […].
Four two-way combinations were performed on a 5×5 matrix, in triplicate plates. Transfection reagent was present in all wells.
DNA in the culture supernatants harvested on days 8 was isolated with QIAamp 96 DNA Blood Kit (Qiagen-51162). For each sample, 100 μl of each culture supernatant was used to extract DNA. The DNA was eluted with 180 μl of AE. HBV DNA in the culture supernatants was quantified by quatitative PCR using well-established and commonly used procedures. Percent inhibition of HBV DNA was calculated with the formula below:
% Inh. HBV DNA=[1−value of sample/AVG. value of Medium control]×100.
Results of double combination studies were analyzed using MacSynergy II software (Prichard and Shipman, 1992).

HBV DNA [2] = test: as above; format: cell-based, HBV genotype D; primary human hepatocytes; settings: Hepatitis B virus, determined in an earlier separate experiment
HBsAg = HBsAg in culture supernatants of HBV-infected PHH by ELISA (Examples 15-17); settings: for AVERAGE % INHIBITION: HBsAg; for EC50: Hepatitis B virus
Procedure: All the test articles were further diluted 100 times with the culture medium. The final concentration of DMSO in the culture medium was 2%.
HBsAg in the culture supernatants harvested on days 8 was measured using the HBsAg/ELISA kit (Autobio) according to the manual. The samples were diluted 4-fold with PBS to get the signal in the range of the standard curve. Percent inhibition of HBsAg was calculated with the following formula:
% Inh. HBsAg=[1−HBsAg quantity of sample/HBV quantity of DMSO control]×100

[3] = Hepatitis B virus, read-out: ADDITIVE INHIBITION
[4] = Hepatitis B virus, read-out: AVERAGE % INHIBITION

C=C1[C@H](CO)[C@@H](O)C[C@@H]1n1cnc2c(=O)[nH]c(N)nc21 [ETV, entecavir]
SYNERGY PLOT (99%) Bonferroni Adj. 55% (HBV rcDNA): 0
ADDITIVE INHIBITION (HBV rcDNA; Expt 3, ETV 0.0003 μM alone): 28.28
ADDITIVE INHIBITION (HBV rcDNA; Expt 3, ETV 0.001 μM alone): 38.31
ADDITIVE INHIBITION (HBV rcDNA; Expt 3, ETV 0.003 μM alone): 62.92
ADDITIVE INHIBITION (HBV rcDNA; Expt 3, ETV 0.008 μM alone): 88.06
inhibition at 0.0003 µM (HBV rcDNA; Hepatitis B virus, HepDE19, Expt 3, ETV 0.0003 μM alone): 28.3%
inhibition at 0.001 µM (HBV rcDNA; Hepatitis B virus, HepDE19, Expt 3, ETV 0.001 μM alone, read-out: AVERAGE % INHIBITION): 38.3%
inhibition at 0.003 µM (HBV rcDNA; Hepatitis B virus, HepDE19, Expt 3, ETV 0.003 μM alone, read-out: AVERAGE % INHIBITION): 62.9%
inhibition at 0.008 µM (HBV rcDNA; Hepatitis B virus, HepDE19, Expt 3, ETV 0.008 μM alone): 88.1%
EC50 (HBV rcDNA; Hepatitis B virus): 1 nM
Average percent of cell viability vs control (HepG2.2.15 cells): 101.92%
SYNERGY PLOT (99.9%) Bonferroni Adj. 98% (HBV DNA) (HBV DNA [1]; Compound 1 0.00 μg/mL, ETV nM by row: r41 0.07000, r42 0.02300, r43 0.00780, r44 0.00260, r45 0.00086, r46 0.00000): 0
inhibition at 860 fM (HBV DNA [1]; Hepatitis B virus, HBV DNA, ETV 0.00086 nM alone): -5.71%
inhibition at 2.6 pM (HBV DNA [1]; Hepatitis B virus, HBV DNA, ETV 0.00260 nM alone): 8.16%
inhibition at 23 pM (HBV DNA [1]; Hepatitis B virus, HBV DNA, ETV 0.02300 nM alone): 62.3%
inhibition at 70 pM (HBV DNA [1]; Hepatitis B virus, HBV DNA, ETV 0.07000 nM alone): 85.7%
inhibition at 7.8 pM (HBV DNA [1]; Hepatitis B virus, HBV DNA, ETV […] alone): 24.2%
EC50 (HBV DNA [2]): 0.015 nM
AVERAGE % INHIBITION (HBsAg; ETV 0.00260 nM alone): 4.92% and −1.45%
AVERAGE % INHIBITION (HBsAg; ETV 0.02300 nM alone): 0.19% and −6.78%
EC50 (HBsAg): > 0.07 nM

CC(C)OC(=O)OCOP(=O)(CO[C@H](C)Cn1cnc2c(N)ncnc21)OCOC(=O)OC(C)C.O=C(O)/C=C/C(=O)O [TDF, tenofovir disoproxil fumarate, reference compound]
SYNERGY PLOT (99%) Bonferroni Adj. 55% (HBV rcDNA): 0
ADDITIVE INHIBITION (HBV rcDNA; Expt 1, TDF 0.009 μM alone): −0.25
ADDITIVE INHIBITION (HBV rcDNA; Expt 1, TDF 0.083 μM alone): 45.88
ADDITIVE INHIBITION (HBV rcDNA; Expt 1, TDF 0.750 μM alone): 98
ADDITIVE INHIBITION (HBV rcDNA; Expt 3, TDF 0.009 μM alone): 32.54
ADDITIVE INHIBITION (HBV rcDNA; Expt 3, TDF 0.083 μM alone): 76.04
ADDITIVE INHIBITION (HBV rcDNA; Expt 3, TDF 0.750 μM alone): 96.97
inhibition at 0.009 µM (HBV rcDNA; Hepatitis B virus, HepDE19, Expt 1, TDF 0.009 μM alone): -0.25%
inhibition at 0.083 µM (HBV rcDNA; Hepatitis B virus, HepDE19, Expt 1, TDF 0.083 μM alone): 45.9%
inhibition at 0.75 µM (HBV rcDNA; Hepatitis B virus, HepDE19, Expt 1, TDF 0.750 μM alone): 98%
inhibition at 0.01 µM (HBV rcDNA; [3]): 4.67%
inhibition at 0.01 µM (HBV rcDNA; [4]): 4.67%
inhibition at 0.02 µM (HBV rcDNA; [3]): -12.9%
inhibition at 0.02 µM (HBV rcDNA; [4]): -12.9%
inhibition at 0.039 µM (HBV rcDNA; [3]): 35.9%
inhibition at 0.039 µM (HBV rcDNA; [4]): 35.9%
inhibition at 0.156 µM (HBV rcDNA; [3]): 77.1%
inhibition at 0.156 µM (HBV rcDNA; [4]): 77.1%
inhibition at 1.25 µM (HBV rcDNA; [3]): 98.4%
inhibition at 1.25 µM (HBV rcDNA; [4]): 98.4%
inhibition at 0.009 µM (HBV rcDNA; Hepatitis B virus, HepDE19, Expt 3, TDF 0.009 μM alone): 32.5%
inhibition at 0.083 µM (HBV rcDNA; Hepatitis B virus, HepDE19, Expt 3, TDF 0.083 μM alone): 76%
inhibition at 0.75 µM (HBV rcDNA; Hepatitis B virus, HepDE19, Expt 3, TDF 0.750 μM alone): 97%
EC50 (HBV rcDNA; Hepatitis B virus): 64 nM
AVERAGE % INHIBITION (HBV DNA [1]; HBV DNA, TDF 0.12 nM alone): 22.22%
AVERAGE % INHIBITION (HBV DNA [1]; HBV DNA, TDF 10.0 nM alone): 92.76%
inhibition at 0.00012 µM (HBV DNA [1]; Hepatitis B virus, HBV DNA, TDF 0.12 nM alone): 36.1%
inhibition at 0.00037 µM (HBV DNA [1]; Hepatitis B virus, HBV DNA, TDF 0.37 nM alone): 44.6%
inhibition at 0.01 µM (HBV DNA [1]; Hepatitis B virus, HBV DNA, TDF 10.0 nM alone): 92.5%
EC50 (HBV DNA [2]): 0.42 nM
AVERAGE % INHIBITION (HBsAg; TDF 0.12 nM alone): −1.47% and −10.84%
AVERAGE % INHIBITION (HBsAg; TDF 0.37 nM alone): −1.3% and −9.3%
EC50 (HBsAg): > 10 nM
